In ChEMBL document CHEMBL4507318, “Data for DCP probe BAY-985” (2021):

Columns and labels:
[1] = system: Tyrosine-protein kinase ABL1 (Homo sapiens), P00519 [Q252H]
[2] = target: Fibroblast growth factor receptor 3 (Homo sapiens) (UniProt P22607)
[3] = target: Insulin-like growth factor 1 receptor (Homo sapiens) (UniProt P08069)
[4] = system: Receptor-type tyrosine-protein kinase FLT3 (Homo sapiens), P36888 [UNDEFINED MUTATION]
[5] = target: Serine/threonine-protein kinase DCLK2 (Homo sapiens) (UniProt Q8N568)
[6] = target: Ribosomal protein S6 kinase alpha-2 (Homo sapiens) (UniProt Q15349)
[7] = target: GABA-A receptor; anion channel (Rattus norvegicus) (UniProt O09028+P15431+P18506+P18508+P19969+P20236+P23574+P23576+P28471+P28473+P30191+P62813+P63079+P63138+Q91ZM7+Q9ES14); conditions: Compound concentration 10.0 uM
[8] = target: Casein kinase I isoform gamma-1 (Homo sapiens) (UniProt Q9HCP0)
[9] = system: Mast/stem cell growth factor receptor Kit (Homo sapiens), P10721 [A829P]
[10] = system: Epidermal growth factor receptor (Homo sapiens), P00533 [L861Q]
[11] = target: Serine/threonine-protein kinase Chk1 (Homo sapiens) (UniProt O14757)
[12] = target: Serine/threonine-protein kinase PLK2 (Homo sapiens) (UniProt Q9NYY3)
[13] = target: MAP/microtubule affinity-regulating kinase 4 (Homo sapiens) (UniProt Q96L34)
[14] = target: Platelet-derived growth factor receptor beta (Homo sapiens) (UniProt P09619)
[15] = target: LIM domain kinase 2 (Homo sapiens) (UniProt P53671)
[16] = target: Ephrin type-B receptor 6 (Homo sapiens) (UniProt O15197)
[17] = system: Epidermal growth factor receptor (Homo sapiens), P00533 [UNDEFINED MUTATION]
[18] = target: Serine/threonine-protein kinase tousled-like 2 (Homo sapiens) (UniProt Q86UE8)
[19] = target: Protein kinase C iota type (Homo sapiens) (UniProt P41743)
[20] = target: TGF-beta receptor type-1 (Homo sapiens) (UniProt P36897)
[21] = target: Dual specificity protein kinase CLK1 (Homo sapiens) (UniProt P49759)
[22] = target: Serine/threonine-protein kinase WNK4 (Homo sapiens) (UniProt Q96J92)
[23] = target: Dual specificity mitogen-activated protein kinase kinase 4 (Homo sapiens) (UniProt P45985)
[24] = target: Ribosomal protein S6 kinase beta-1 (Homo sapiens) (UniProt P23443)
[25] = system: Receptor-type tyrosine-protein kinase FLT3 (Homo sapiens), P36888 [D835Y]
[26] = target: Ribosomal protein S6 kinase alpha-6 (Homo sapiens) (UniProt Q9UK32)
[27] = target: 5-hydroxytryptamine receptor 1B (Homo sapiens) (UniProt P28222); conditions: Compound concentration 10.0 uM
[28] = target: Serine/threonine-protein kinase 24 (Homo sapiens) (UniProt Q9Y6E0)
[29] = target: Wee1-like protein kinase 2 (Homo sapiens) (UniProt P0C1S8)
[30] = target: Death-associated protein kinase 3 (Homo sapiens) (UniProt O43293)
[31] = target: D(1A) dopamine receptor (Homo sapiens) (UniProt P21728); conditions: Compound concentration 10.0 uM
[32] = target: Dual specificity protein kinase CLK4 (Homo sapiens) (UniProt Q9HAZ1)
[33] = target: Fibroblast growth factor receptor 1 (Homo sapiens) (UniProt P11362)
[34] = system: Tyrosine-protein kinase ABL1 (Homo sapiens), P00519 [Q252H]; remark: listed apart in the source
[35] = target: Serine/threonine-protein kinase pim-3 (Homo sapiens) (UniProt Q86V86)
[36] = target: D(3) dopamine receptor (Homo sapiens) (UniProt P35462); conditions: Compound concentration 10.0 uM
[37] = target: Dual specificity mitogen-activated protein kinase kinase 2 (Homo sapiens) (UniProt P36507)
[38] = target: 5-hydroxytryptamine receptor 7 (Homo sapiens) (UniProt P34969); conditions: Compound concentration 10.0 uM
[39] = target: Ephrin type-A receptor 5 (Homo sapiens) (UniProt P54756)
[40] = target: Serine/threonine-protein kinase 3 (Homo sapiens) (UniProt Q13188)
[41] = system: Tyrosine-protein kinase ABL1 (Homo sapiens), P00519 [H396P]
[42] = target: Serine/threonine-protein kinase WNK3 (Homo sapiens) (UniProt Q9BYP7)
[43] = target: Casein kinase I isoform delta (Homo sapiens) (UniProt P48730)
[44] = target: Serine/threonine-protein kinase pim-1 (Homo sapiens) (UniProt P11309)
[45] = Compound concentration 1000.0 nM
[46] = Compound concentration 100.0 nM

Sequence of Ribosomal protein S6 kinase alpha-6 (Homo sapiens) (Q9UK32 whole entry): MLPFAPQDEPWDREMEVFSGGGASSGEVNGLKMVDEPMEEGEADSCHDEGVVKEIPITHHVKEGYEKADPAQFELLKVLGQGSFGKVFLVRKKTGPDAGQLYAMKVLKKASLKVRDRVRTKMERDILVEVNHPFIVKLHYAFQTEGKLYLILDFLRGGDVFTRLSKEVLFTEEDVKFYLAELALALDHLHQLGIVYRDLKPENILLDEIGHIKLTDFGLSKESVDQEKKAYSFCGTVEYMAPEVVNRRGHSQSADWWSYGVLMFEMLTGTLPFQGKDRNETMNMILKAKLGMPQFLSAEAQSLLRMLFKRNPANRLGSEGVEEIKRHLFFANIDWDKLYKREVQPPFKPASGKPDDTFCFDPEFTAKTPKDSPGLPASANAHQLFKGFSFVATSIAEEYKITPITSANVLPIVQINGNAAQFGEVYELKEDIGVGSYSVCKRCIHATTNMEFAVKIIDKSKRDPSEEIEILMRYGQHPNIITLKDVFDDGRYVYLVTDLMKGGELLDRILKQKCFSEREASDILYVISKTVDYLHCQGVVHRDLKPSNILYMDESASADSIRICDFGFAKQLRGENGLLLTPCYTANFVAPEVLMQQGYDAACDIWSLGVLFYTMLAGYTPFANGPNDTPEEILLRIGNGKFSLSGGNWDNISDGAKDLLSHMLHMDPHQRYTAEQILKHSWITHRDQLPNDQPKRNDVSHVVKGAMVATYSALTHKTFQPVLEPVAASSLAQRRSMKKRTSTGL
Sequence of 5-hydroxytryptamine receptor 1B (Homo sapiens) (P28222 whole entry): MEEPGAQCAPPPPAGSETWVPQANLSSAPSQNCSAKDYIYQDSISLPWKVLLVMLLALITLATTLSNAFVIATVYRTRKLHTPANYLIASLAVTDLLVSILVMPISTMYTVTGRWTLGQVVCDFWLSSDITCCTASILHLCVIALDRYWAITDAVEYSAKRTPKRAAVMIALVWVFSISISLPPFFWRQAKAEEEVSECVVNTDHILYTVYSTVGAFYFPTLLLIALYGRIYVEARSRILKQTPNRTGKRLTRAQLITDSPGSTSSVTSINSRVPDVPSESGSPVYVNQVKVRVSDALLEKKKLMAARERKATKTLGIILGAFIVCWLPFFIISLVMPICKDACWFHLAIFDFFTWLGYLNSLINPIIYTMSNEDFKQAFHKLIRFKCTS
Sequence of D(3) dopamine receptor (Homo sapiens) (P35462 whole entry): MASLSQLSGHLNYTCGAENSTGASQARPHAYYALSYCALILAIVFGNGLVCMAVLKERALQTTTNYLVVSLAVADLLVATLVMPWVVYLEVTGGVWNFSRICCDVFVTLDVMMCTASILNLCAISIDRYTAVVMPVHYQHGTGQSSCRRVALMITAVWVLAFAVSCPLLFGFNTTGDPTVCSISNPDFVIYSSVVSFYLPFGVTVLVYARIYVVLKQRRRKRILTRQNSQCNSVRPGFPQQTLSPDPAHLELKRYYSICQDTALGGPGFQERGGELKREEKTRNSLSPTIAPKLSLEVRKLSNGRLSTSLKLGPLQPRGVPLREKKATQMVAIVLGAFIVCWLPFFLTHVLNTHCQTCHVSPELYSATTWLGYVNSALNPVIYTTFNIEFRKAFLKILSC
Sequence of Dual specificity protein kinase CLK1 (Homo sapiens) (P49759 whole entry, looked up): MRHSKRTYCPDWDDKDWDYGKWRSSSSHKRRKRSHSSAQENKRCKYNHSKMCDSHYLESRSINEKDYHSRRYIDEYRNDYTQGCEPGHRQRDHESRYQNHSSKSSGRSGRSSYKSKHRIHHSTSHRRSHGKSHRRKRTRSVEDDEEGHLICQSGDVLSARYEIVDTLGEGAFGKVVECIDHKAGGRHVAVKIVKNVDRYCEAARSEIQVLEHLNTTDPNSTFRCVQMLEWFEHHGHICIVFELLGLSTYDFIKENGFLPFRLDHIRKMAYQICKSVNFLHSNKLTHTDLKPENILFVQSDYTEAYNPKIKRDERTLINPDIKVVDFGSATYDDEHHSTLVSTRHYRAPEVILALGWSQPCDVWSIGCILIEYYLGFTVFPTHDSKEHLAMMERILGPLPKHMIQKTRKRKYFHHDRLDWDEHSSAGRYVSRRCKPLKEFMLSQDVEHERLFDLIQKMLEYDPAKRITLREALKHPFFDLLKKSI
Sequence of Ribosomal protein S6 kinase alpha-2 (Homo sapiens) (Q15349 whole entry): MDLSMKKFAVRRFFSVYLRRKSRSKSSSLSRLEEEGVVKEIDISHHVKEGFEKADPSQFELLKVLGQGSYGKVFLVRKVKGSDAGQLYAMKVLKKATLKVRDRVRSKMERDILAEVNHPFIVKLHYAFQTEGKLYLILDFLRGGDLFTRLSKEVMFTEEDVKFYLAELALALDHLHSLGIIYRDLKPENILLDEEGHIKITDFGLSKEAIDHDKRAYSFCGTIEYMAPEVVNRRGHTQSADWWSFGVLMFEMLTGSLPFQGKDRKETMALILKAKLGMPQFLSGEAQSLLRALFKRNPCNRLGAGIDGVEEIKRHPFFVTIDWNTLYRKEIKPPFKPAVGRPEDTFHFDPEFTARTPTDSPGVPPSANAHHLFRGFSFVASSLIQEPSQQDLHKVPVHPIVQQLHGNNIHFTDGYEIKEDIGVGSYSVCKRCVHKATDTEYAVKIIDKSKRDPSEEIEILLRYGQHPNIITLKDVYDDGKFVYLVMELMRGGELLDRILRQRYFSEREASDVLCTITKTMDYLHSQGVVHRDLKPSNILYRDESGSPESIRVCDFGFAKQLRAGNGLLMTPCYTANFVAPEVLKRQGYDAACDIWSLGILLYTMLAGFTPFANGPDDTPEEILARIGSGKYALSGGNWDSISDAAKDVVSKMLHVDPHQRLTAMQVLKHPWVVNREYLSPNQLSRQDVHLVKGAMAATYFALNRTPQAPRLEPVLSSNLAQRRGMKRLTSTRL
Sequence of Platelet-derived growth factor receptor beta (Homo sapiens) (P09619 whole entry, the tested form may be a part): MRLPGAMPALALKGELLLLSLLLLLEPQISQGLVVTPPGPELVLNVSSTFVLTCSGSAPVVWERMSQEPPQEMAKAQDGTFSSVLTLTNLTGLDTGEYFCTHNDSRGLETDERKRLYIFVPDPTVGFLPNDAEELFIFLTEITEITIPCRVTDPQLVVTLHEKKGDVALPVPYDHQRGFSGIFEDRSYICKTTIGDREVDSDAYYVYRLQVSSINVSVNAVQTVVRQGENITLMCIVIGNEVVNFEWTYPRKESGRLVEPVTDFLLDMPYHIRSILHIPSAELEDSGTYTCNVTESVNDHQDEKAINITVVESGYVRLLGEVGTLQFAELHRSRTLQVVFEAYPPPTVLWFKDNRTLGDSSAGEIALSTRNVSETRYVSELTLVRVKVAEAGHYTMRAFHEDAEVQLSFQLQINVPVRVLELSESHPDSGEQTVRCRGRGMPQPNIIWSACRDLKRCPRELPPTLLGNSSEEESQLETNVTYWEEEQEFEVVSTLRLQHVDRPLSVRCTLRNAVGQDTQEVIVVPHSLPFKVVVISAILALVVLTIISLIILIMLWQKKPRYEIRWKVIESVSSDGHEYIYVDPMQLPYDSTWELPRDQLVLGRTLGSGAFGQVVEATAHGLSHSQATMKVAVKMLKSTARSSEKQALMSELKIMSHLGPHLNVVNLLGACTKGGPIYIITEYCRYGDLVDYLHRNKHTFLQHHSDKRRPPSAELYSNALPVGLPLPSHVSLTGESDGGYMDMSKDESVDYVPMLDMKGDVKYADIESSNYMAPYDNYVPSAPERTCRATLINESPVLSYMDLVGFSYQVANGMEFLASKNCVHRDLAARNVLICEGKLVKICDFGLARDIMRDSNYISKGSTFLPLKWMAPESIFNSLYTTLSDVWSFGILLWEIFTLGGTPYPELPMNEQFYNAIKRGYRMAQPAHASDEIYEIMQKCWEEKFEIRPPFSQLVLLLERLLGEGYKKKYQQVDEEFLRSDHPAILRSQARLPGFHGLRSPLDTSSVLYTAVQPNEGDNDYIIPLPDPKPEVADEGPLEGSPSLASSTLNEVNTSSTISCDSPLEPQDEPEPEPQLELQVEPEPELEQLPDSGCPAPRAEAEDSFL
Sequence of Fibroblast growth factor receptor 1 (Homo sapiens) (P11362 22-822 limits assumed): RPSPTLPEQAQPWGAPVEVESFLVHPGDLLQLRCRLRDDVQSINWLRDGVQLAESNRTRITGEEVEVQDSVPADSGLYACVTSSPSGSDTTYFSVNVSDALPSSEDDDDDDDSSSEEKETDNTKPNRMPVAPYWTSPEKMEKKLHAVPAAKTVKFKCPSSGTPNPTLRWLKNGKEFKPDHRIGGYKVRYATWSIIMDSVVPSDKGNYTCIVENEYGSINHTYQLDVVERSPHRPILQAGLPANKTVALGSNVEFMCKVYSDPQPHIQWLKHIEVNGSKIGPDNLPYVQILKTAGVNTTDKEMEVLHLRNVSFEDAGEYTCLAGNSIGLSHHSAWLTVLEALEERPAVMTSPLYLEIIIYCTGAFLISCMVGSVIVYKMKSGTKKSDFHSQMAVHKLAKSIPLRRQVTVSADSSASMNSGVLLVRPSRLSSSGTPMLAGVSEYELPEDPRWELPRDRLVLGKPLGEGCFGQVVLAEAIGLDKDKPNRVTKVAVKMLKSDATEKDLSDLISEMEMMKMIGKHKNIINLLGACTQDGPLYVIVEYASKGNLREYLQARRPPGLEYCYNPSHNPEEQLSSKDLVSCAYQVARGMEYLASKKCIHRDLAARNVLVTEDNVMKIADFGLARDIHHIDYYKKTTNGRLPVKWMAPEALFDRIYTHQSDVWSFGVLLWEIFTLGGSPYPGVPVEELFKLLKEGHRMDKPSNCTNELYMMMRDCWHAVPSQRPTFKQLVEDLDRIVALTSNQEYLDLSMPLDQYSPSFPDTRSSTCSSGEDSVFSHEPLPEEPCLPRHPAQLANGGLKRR

`CN(C)c1ncnc(-c2ccc3nc(Nc4cc(CN5CCN(C(=O)CC(F)(F)F)CC5)ccn4)[nH]c3c2)c1Cl` [BAY-440] showed a residual activity [1, 45] of 29%, a residual activity [2, 45] of 100% and a residual activity [3, 45] of 100%. For the same compound, the residual activity [4, 45] was 35%, the residual activity [5, 45] was 100% and the residual activity [6, 45] was 100%. For the same compound, the inhibition [7] was 14%, the residual activity [8, 45] was 76% and the residual activity [9, 45] was 53%. For the same compound, the residual activity [10, 45] was 96%, the residual activity [11, 45] was 97% and the residual activity [12, 45] was 100%. The residual activity [13, 45] was 100%, the residual activity [14, 45] was 100% and the residual activity [15, 45] was 100%. It also gave a residual activity [16, 45] of 69%, a residual activity [17, 45] of 100% and a residual activity [18, 45] of 100%. The residual activity [19, 45] was 79%, the residual activity [20, 45] was 100% and the residual activity [21, 45] was 71%. The residual activity [22, 45] was 53%, the residual activity [23, 45] was 92% and the residual activity [24, 45] was 92%. The residual activity [25, 45] was 38%, the residual activity [26, 45] was 84% and the inhibition [27] was 6.15%. It also gave a residual activity [28, 45] of 90%, a residual activity [29, 45] of 100% and a residual activity [30, 45] of 99%. The inhibition [31] was 23%, the residual activity [32, 45] was 99% and the residual activity [33, 45] was 100%. For the same compound, the residual activity [34, 45] was 22%, the residual activity [35, 45] was 100% and the inhibition [36] was 30.1%. It also gave a residual activity [37, 45] of 74%, an inhibition [38] of 13.4% and a residual activity [39, 45] of 100%. It also gave a residual activity [40, 45] of 100%, a residual activity [41, 45] of 4.2% and a residual activity [42, 45] of 85%. The residual activity [43, 45] was 83% and the residual activity [44, 45] was 100%.

Work on `C[C@H](c1ccnc(Nc2nc3ccc(-c4cc(N(C)C)ncn4)cc3[nH]2)c1)N1CCN(C(=O)CC(F)(F)F)CC1` [BAY-985] yielded a residual activity [1, 46] of 84%, a residual activity [2, 46] of 100% and a residual activity [3, 46] of 98%. The residual activity [4, 46] was 42%, the residual activity [5, 46] was 85% and the residual activity [6, 46] was 89%. It also gave an inhibition [7] of 5.57%, a residual activity [8, 46] of 100% and a residual activity [9, 46] of 83%. It also gave a residual activity [10, 46] of 76%, a residual activity [11, 46] of 87% and a residual activity [12, 46] of 100%. For the same compound, the residual activity [13, 46] was 100%, the residual activity [14, 46] was 82% and the residual activity [15, 46] was 88%. It also gave a residual activity [16, 46] of 100%, a residual activity [17, 46] of 69% and a residual activity [18, 46] of 99%. It also gave a residual activity [19, 46] of 100%, a residual activity [20, 46] of 85% and a residual activity [21, 46] of 90%. It also gave a residual activity [22, 46] of 80%, a residual activity [23, 46] of 100% and a residual activity [24, 46] of 100%. For the same compound, the residual activity [25, 46] was 41%, the residual activity [26, 46] was 97% and the inhibition [27] was 11.5%. It also gave a residual activity [28, 46] of 64%, a residual activity [29, 46] of 98% and a residual activity [30, 46] of 90%. It also gave an inhibition [31] of 1.63%, a residual activity [32, 46] of 82% and a residual activity [33, 46] of 100%. It also gave a residual activity [34, 46] of 94%, a residual activity [35, 46] of 87% and an inhibition [36] of 35.5%. It also gave a residual activity [37, 46] of 100%, an inhibition [38] of 16.6% and a residual activity [39, 46] of 81%. It also gave a residual activity [40, 46] of 93%, a residual activity [41, 46] of 79% and a residual activity [42, 46] of 100%. For the same compound, the residual activity [43, 46] was 89% and the residual activity [44, 46] was 79%.
